# In patent US20100267561A1, “HERBICIDAL PYRIDAZINONE DERIVATIVES” (priority 2007, published 2010):
# How the values were obtained:
# Format in all cases: in vivo
# [1] = system: Italian ryegrass (Lolium multiflorum); assay: Test B pre-/postemergence plant response
# Procedure, shortened: (§1)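 Visual scoring from 0 (no effect) to 100 (complete control) against untreated controls was done 13 to 15 days after greenhouse treatment. Chemicals were formulated in a surfactant-containing non-phytotoxic solvent and applied to soil preemergence or to 1- to 4-leaf (2-18 cm) plants postemergence.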
# [2] = system: bermudagrass (Cynodon dactylon); assay: Test B pre-/postemergence plant response; conditions: for Bermudagrass plant response rating: 8 g ai/ha
# Procedure, shortened: as §1
# [3] = system: catchweed bedstraw (Galium aparine); assay: Test B pre-/postemergence plant response; conditions: Preemergence; for Galium plant response rating: scale 0 to 100
# Procedure, shortened: as §1
# [4] = system: giant foxtail (Setaria faberii); assay: Test B pre-/postemergence plant response
# Procedure, shortened: as §1
# [5] = system: goosegrass (Eleusine indica); assay: Test B pre-/postemergence plant response
# Procedure, shortened: as §1
# [6] = system: johnsongrass (Sorghum halepense); assay: Test B pre-/postemergence plant response
# Procedure, shortened: as §1
# kochia (Kochia scoparia) = assay: Test B pre-/postemergence plant response; conditions: for Kochia plant response rating: postemergence, 0-100 scale; for Plant response rating, Kochia: Postemergence
# Procedure, shortened: as §1
# [7] = system: lambsquarters (Chenopodium album); assay: Test B pre-/postemergence plant response
# Procedure, shortened: as §1
# [8] = system: large crabgrass (Digitaria sanguinalis); assay: Test B pre-/postemergence plant response
# Procedure, shortened: as §1
# [9] = system: morningglory (Ipomoea coccinea); assay: Test B pre-/postemergence plant response
# Procedure, shortened: as §1
# [10] = system: pigweed (Amaranthus retroflexus); assay: Test B pre-/postemergence plant response
# Procedure, shortened: as §1
# soybean (Glycine max) = assay: Test B pre-/postemergence plant response
# Procedure, shortened: as §1
# [11] = system: velvetleaf (Abutilon theophrasti); assay: Test B pre-/postemergence plant response
# Procedure, shortened: as §1
# rice (Oryza sativa) = assay: Test B flooded paddy test plant response
# Procedure, shortened: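 2-leaf plants; pots flooded 3 cm above soil; compound added to paddy water; depth maintained. Greenhouse 13–15 d. Visual rating vs controls, 0 (no effect) to 100 (complete control); dash = no result.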
# [12] = 8 g ai/ha, postemergence, 0-100 scale
# [13] = 16 g ai/ha, postemergence, 0-100 scale
# [14] = Postemergence, 31 g ai/ha, scale 0 to 100
# [15] = Postemergence, 62 g ai/ha, scale 0 to 100, 0 no effect, 100 complete control
# [16] = Preemergence, 31 g ai/ha, scale 0 to 100 (0 no effect, 100 complete control)
# [17] = Preemergence, 62 g ai/ha, 0 to 100 scale, 0 no effect, 100 complete control
# [18] = Preemergence, 8 g ai/ha, scale 0 to 100
# [19] = Preemergence, 16 g ai/ha, scale 0 to 100
# [20] = Postemergence, 16 g ai/ha, scale 0 to 100
structure (smiles),measurement,setting,value
CCCc1cc(-c2ccc(C(F)(F)F)cc2)nn1-c1c(O)cnn(C)c1=O [Compound 72],"Ryegrass, Italian plant response rating",[1]; [12],80
same,"Ryegrass, Italian plant response rating",[1]; [13],100
same,"Plant response rating, Ryegrass, Italian",[1]; [14],100
same,"Plant response rating, Ryegrass, Italian",[1]; [15],100
same,"Plant response rating, Ryegrass, Italian",[1]; [16],100
same,"Plant response rating, Ryegrass, Italian",[1]; [17],100
same,"Ryegrass, Italian plant response rating",[1]; [18],75
same,"Ryegrass, Italian plant response rating",[1]; [19],90
same,Bermudagrass plant response rating,"[2]; postemergence, 0-100 scale",0
same,"Plant response rating, Bermudagrass",[2]; [20],50
same,"Plant response rating, Bermudagrass",[2]; [14],60
same,"Plant response rating, Bermudagrass",[2]; [15],80
same,Bermudagrass plant response rating,"[2]; Preemergence, scale 0 to 100 (0 no effect, 100 complete control)",40
same,"Plant response rating, Bermudagrass","[2]; Preemergence, 16 g ai/ha, scale 0 to 100 (0 no effect, 100 complete control)",100
same,"Plant response rating, Bermudagrass",[2]; [16],100
same,"Plant response rating, Bermudagrass",[2]; [17],100
same,"Plant response rating, Galium","[3]; 31 g ai/ha, scale 0 to 100 (0 no effect, 100 complete control)",0
same,"Plant response rating, Galium","[3]; 62 g ai/ha, 0 to 100 scale, 0 no effect, 100 complete control",0
same,Galium plant response rating,[3]; 8 g ai/ha,0
same,Galium plant response rating,[3]; 16 g ai/ha,0
same,"Foxtail, Giant plant response rating",[4]; [12],95
same,"Plant response rating, Foxtail, Giant",[4]; [20],100
same,"Plant response rating, Foxtail, Giant",[4]; [14],100
same,"Plant response rating, Foxtail, Giant",[4]; [15],100
same,"Plant response rating, Foxtail, Giant",[4]; [16],100
same,"Plant response rating, Foxtail, Giant",[4]; [17],100
same,"Foxtail, Giant plant response rating",[4]; [18],70
same,"Foxtail, Giant plant response rating",[4]; [19],85
same,Goosegrass plant response rating,[5]; [12],30
same,Goosegrass plant response rating,[5]; [13],30
same,"Plant response rating, Goosegrass",[5]; [14],35
same,"Plant response rating, Goosegrass",[5]; [15],35
same,"Plant response rating, Goosegrass",[5]; [16],95
same,"Plant response rating, Goosegrass",[5]; [17],100
same,Goosegrass plant response rating,[5]; [18],95
same,Goosegrass plant response rating,[5]; [19],95
same,Johnsongrass plant response rating,[6]; [12],70
same,Johnsongrass plant response rating,[6]; [13],75
same,"Plant response rating, Johnsongrass",[6]; [15],100
same,"Plant response rating, Johnsongrass",[6]; [16],95
same,"Plant response rating, Johnsongrass",[6]; [17],100
same,Johnsongrass plant response rating,[6]; [18],50
same,Johnsongrass plant response rating,[6]; [19],55
same,Kochia plant response rating,kochia (Kochia scoparia); 8 g ai/ha,0
same,Kochia plant response rating,kochia (Kochia scoparia); 16 g ai/ha,0
same,"Plant response rating, Kochia","kochia (Kochia scoparia); 31 g ai/ha, scale 0 to 100",0
same,"Plant response rating, Kochia","kochia (Kochia scoparia); 62 g ai/ha, scale 0 to 100, 0 no effect, 100 complete control",0
same,Lambsquarters plant response rating,[7]; [12],0
same,Lambsquarters plant response rating,[7]; [13],0
same,"Plant response rating, Lambsquarters",[7]; [14],0
same,"Plant response rating, Lambsquarters",[7]; [15],0
same,"Plant response rating, Lambsquarters",[7]; [16],30
same,"Plant response rating, Lambsquarters",[7]; [17],40
same,Lambsquarters plant response rating,[7]; [18],0
same,Lambsquarters plant response rating,[7]; [19],0
same,"Crabgrass, Large plant response rating",[8]; [12],95
same,"Plant response rating, Crabgrass, Large",[8]; [20],100
same,"Plant response rating, Crabgrass, Large",[8]; [14],100
same,"Plant response rating, Crabgrass, Large",[8]; [15],100
same,"Plant response rating, Crabgrass, Large",[8]; [16],80
same,"Plant response rating, Crabgrass, Large",[8]; [17],100
same,"Crabgrass, Large plant response rating",[8]; [18],30
same,"Crabgrass, Large plant response rating",[8]; [19],50
same,Morningglory plant response rating,[9]; [12],0
same,Morningglory plant response rating,[9]; [13],0
same,"Plant response rating, Morningglory",[9]; [14],0
same,"Plant response rating, Morningglory",[9]; [15],0
same,"Plant response rating, Morningglory",[9]; [16],0
same,"Plant response rating, Morningglory",[9]; [17],0
same,Morningglory plant response rating,[9]; [18],0
same,Morningglory plant response rating,[9]; [19],0
same,Pigweed plant response rating,[10]; [12],0
same,Pigweed plant response rating,[10]; [13],0
same,"Plant response rating, Pigweed",[10]; [14],0
same,"Plant response rating, Pigweed",[10]; [15],0
same,"Plant response rating, Pigweed",[10]; [16],0
same,"Plant response rating, Pigweed",[10]; [17],50
same,Pigweed plant response rating,[10]; [18],0
same,Pigweed plant response rating,[10]; [19],0
same,Soybean plant response rating,soybean (Glycine max); [12],0
same,Soybean plant response rating,soybean (Glycine max); [13],0
same,"Plant response rating, Soybean",soybean (Glycine max); [14],0
same,"Plant response rating, Soybean",soybean (Glycine max); [15],0
same,"Plant response rating, Soybean",soybean (Glycine max); [16],0
same,"Plant response rating, Soybean",soybean (Glycine max); [17],0
same,Soybean plant response rating,soybean (Glycine max); [18],0
same,Soybean plant response rating,soybean (Glycine max); [19],0
same,Velvetleaf plant response rating,[11]; [12],0
same,Velvetleaf plant response rating,[11]; [13],0
same,"Plant response rating, Velvetleaf",[11]; [14],0
same,"Plant response rating, Velvetleaf",[11]; [15],0
same,"Plant response rating, Velvetleaf",[11]; [16],0
same,"Plant response rating, Velvetleaf",[11]; [17],0
same,Velvetleaf plant response rating,[11]; [18],0
same,Velvetleaf plant response rating,[11]; [19],0
same,"Plant response rating, Rice","rice (Oryza sativa); Flood (flooded paddy test), 62 g ai/ha, scale 0 to 100, 0 no effect, 100 complete control",15
same,"Plant response rating, Rice","rice (Oryza sativa); Flood (flooded paddy test), 125 g ai/ha, scale 0 to 100, 0 no effect, 100 complete control",45
same,"Plant response rating, Rice","rice (Oryza sativa); Flood (flooded paddy test), 250 g ai/ha, scale 0 to 100, 0 no effect, 100 complete control",65
same,"Plant response rating, Rice","rice (Oryza sativa); Flood, 31 g ai/ha, scale 0 to 100",10
